Reference: patent publication US4590284A, “Pineapple ketone 1'-alkoxyalkyl derivatives” (Hercules Incorporated, priority 1985, dated 1986)
Where two headings read alike, the source gives them in different places. Blank lines part the entries; values can stand above or below the compound they belong to.

Assays:
[1] = fragranced soaps, six months of storage; cited from earlier work
[2] = 0 min
Method: (§1) The disappearance of both compounds is measured by gas chromatography using a six foot long, one-eighth inch diameter column having 15 percent by weight polyethylene glycol with an average molecular weight of 20,000 (Carbowax-20 M, Trademark) on particles of 80 by 100 mesh diatomaceous earth (Chromasorb W, Trademark) and using helium feed at 28 cc. per minute while heating from 100° to 210° C. at 8° per minute. Ten percent solutions of each compound in toluene are stirred at equal rates in the presence of air at ambient temperatures.

[3] = physchem; details: toluene
Method: as §1

[4] = Water solubility; format: physicochemical; details: in words
[5] = cited from earlier work

SMILES: CC=Cc1ccc(OC(C)OCC)c(OC)c1 (stereo not drawn) [1'-ethoxyethyl ether of isoeugenol]
stability to discoloration [1]: stable to discoloration

% Remaining [2]: 100% | remaining at 17 h [3]: 95% | remaining at 41 h [3]: 93% | remaining at 116 h [3]: 44% | remaining at 137 h [3]: 38%
SMILES: CCOC(C)OC1=C(C)OC(C)C1=O (stereo not drawn) [2,5-Dimethyl-4-[(1'-ethoxy)ethoxy]-3(2H)-furanone]

water solubility [4]: water soluble | % Remaining [2]: 100% | remaining at 15 h [3]: 24% | remaining at 41 h [3]: 18% | remaining at 115 h [3]: 6% | remaining at 138 h [3]: 4%
SMILES: CC1=C(O)C(=O)C(C)O1 (stereo not drawn) [Pineapple Ketone, 2,5-dimethyl-4-hydroxy-3(2H)-furanone]
half-life ([5]; pH 4): 120 days | half-life ([5]; pH 7): 12 days

SMILES: CC=Cc1ccc(O)c(OC)c1 [isoeugenol]
stability to discoloration [1]: causes discoloration
